pIC50: −log10 of the molar value.
Legend:
Substance-P receptor = Substance-P receptor (Homo sapiens, UniProt P25103); assay: Affinity towards hNK1 receptor by displacement of [125I]- Substance P from hNK1 receptor expressed in CHO cells; format: cell-based
[1] = Steady state volume of distribution dosing at 3 mg/kg iv; format: ADME, organism-based; parameters: dose 3 mg/kg, route intravenous; details: rat, in vivo
[2] = Plasma elimination half-life was determined; format: ADME, organism-based; details: rat
[3] = Tmax was determined; format: ADME, organism-based; details: rat, in vivo
[4] = Oral bioavailability; format: ADME, organism-based; details: rat, in vivo
[5] = Maximal plasma drug concentration was determined; format: ADME, organism-based; details: rat
Substance-K receptor = target: T1, Substance-K receptor (Homo sapiens, UniProt P21452); assay: Binding affinity for Tachykinin receptor 2
T1 sequence (P21452 whole entry): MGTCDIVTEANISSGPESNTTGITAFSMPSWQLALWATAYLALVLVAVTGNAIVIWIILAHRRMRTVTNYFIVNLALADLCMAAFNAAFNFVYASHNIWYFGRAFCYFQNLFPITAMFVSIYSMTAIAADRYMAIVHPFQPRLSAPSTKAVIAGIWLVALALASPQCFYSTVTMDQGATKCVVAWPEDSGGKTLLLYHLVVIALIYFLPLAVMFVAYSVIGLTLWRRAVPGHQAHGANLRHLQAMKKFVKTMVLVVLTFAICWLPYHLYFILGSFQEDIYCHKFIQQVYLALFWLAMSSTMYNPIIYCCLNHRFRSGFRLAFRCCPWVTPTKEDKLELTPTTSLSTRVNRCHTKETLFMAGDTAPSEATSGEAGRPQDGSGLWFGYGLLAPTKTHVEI

Neuromedin-K receptor = target: T2, Neuromedin-K receptor (Homo sapiens, UniProt P29371); assay: Binding affinity for Tachykinin receptor 3
T2 sequence (P29371 whole entry): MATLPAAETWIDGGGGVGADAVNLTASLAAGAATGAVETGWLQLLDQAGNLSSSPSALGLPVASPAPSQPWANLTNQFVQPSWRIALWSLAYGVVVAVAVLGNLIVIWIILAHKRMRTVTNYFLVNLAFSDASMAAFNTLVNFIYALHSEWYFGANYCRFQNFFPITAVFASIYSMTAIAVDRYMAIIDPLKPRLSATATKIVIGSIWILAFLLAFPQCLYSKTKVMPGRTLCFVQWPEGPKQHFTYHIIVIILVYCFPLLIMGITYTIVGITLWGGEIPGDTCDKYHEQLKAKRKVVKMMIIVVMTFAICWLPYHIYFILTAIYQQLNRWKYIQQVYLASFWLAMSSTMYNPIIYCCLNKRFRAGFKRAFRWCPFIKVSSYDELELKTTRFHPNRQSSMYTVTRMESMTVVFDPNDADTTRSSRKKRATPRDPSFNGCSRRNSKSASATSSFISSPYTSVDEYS

[6] = Low affinity binding to calcium channel

Chain of Substance-P receptor (P25103 whole entry): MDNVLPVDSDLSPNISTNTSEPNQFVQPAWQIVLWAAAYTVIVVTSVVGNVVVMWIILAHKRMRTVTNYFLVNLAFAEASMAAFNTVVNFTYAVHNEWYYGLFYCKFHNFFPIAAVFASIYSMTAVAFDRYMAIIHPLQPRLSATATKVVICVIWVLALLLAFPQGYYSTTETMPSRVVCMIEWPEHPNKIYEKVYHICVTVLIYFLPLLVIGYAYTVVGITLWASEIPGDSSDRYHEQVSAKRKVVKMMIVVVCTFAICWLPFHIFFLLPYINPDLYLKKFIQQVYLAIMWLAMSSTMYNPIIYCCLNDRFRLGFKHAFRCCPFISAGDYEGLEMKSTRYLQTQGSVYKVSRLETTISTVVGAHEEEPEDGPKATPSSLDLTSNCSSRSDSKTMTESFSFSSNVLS

Row | SMILES | pIC50 (Substance-P receptor) | also measured
1 | Cn1nnc(CN[C@H](COCc2cc(C(F)(F)F)cc(C(F)(F)F)c2)c2ccccc2)n1 | 7.82 | 
2 | Cn1nnnc1CN[C@H](COCc1cc(C(F)(F)F)cc(C(F)(F)F)c1)c1ccccc1 | 8.00 | 
3 | Cc1cc(Cl)cc(COC[C@H](c2ccccc2)N(C)Cc2n[nH]c(O)n2)c1 | 8.66 | 
4 | CN(Cc1nn[nH]n1)[C@H](COCc1cc(C(F)(F)F)cc(C(F)(F)F)c1)c1ccccc1 | 7.15 | 
5 | CN(Cc1nnnn1C)[C@H](COCc1cc(C(F)(F)F)cc(C(F)(F)F)c1)c1ccccc1 | 7.89 | 
6 | FC(F)(F)c1cc(COC[C@@H](NCc2nnc[nH]2)c2ccccc2)cc(C(F)(F)F)c1 | 8.30 | 
7 | O=c1[nH]nc(CN[C@H](COCc2cc(C(F)(F)F)cc(C(F)(F)F)c2)c2ccccc2)[nH]1 | 8.62 | 
8 | CN(Cc1nnn(C)n1)[C@H](COCc1cc(C(F)(F)F)cc(C(F)(F)F)c1)c1ccccc1 | 7.80 | 
9 | FC(F)(F)c1cc(COC[C@@H](NCc2nn[nH]n2)c2ccccc2)cc(C(F)(F)F)c1 | 7.64 | 

The next molecules have a higher pIC50 (Substance-P receptor) than those just listed; values first:

Row | pIC50 (Substance-P receptor) | SMILES | also measured
10 | 8.70 | CCCN(Cc1n[nH]c(O)n1)[C@H](COCc1cc(C(F)(F)F)cc(C(F)(F)F)c1)c1ccccc1 | 
11 | 8.82 | CN(Cc1n[nH]c(O)n1)[C@H](COCc1cc(Cl)cc(Cl)c1)c1ccccc1 | 
12 | 8.85 | CN(Cc1nc[nH]n1)[C@H](COCc1cc(C(F)(F)F)cc(C(F)(F)F)c1)c1ccccc1 | 
13 | 9.10 | CCN(Cc1n[nH]c(O)n1)[C@H](COCc1cc(C(F)(F)F)cc(C(F)(F)F)c1)c1ccccc1 | 
14 | 9.37 | CN(Cc1n[nH]c(O)n1)[C@H](COCc1cc(C(F)(F)F)cc(C(F)(F)F)c1)c1ccccc1 | Vd [1]: 3.5 L/kg; half-life [2]: 48 min; Tmax [3]: 30 min; bioavailability [4]: 16%; Cmax [5]: 97 ng/mL; pIC50 (Substance-K receptor): < 6.00; pIC50 (Neuromedin-K receptor): < 6.00; pIC50 [6]: < 3.00
15 | 9.38 | Cc1cc(COC[C@H](c2ccccc2)N(C)Cc2n[nH]c(=O)[nH]2)cc(C(C)(C)C)c1 | 

Reference: ChEMBL document CHEMBL1130974, “High affinity phenylglycinol-based NK1 receptor antagonists” (Bioorg Med Chem Lett, 1998)
